Test results from patent publication EP0048954A2, “Beta-lactam compounds, process for the preparation thereof and intermediate products for the preparation thereof” (SAGAMI CHEMICAL RESEARCH CENTER, priority 1980, dated 1982).
Converted amounts (≈) assume the structure as drawn. “And” between values parts separate entries of the source, which are not always exact repeats. Equal values may be shown once. Where a name gives a salt, the structure may show the parent alone. Read-outs that look alike come from different tables or passages of the source.

How the values were obtained:
Test in all cases: Antibacterial activity, minimum inhibition concentration (method of The Chemotherapy Association, Japan)
Type in all cases: cell-based
Proteus rettgeri NIH-96 = settings: for minimum inhibition concentration: strain I: Proteus rettgeri NIH-96; for MIC: Providencia rettgeri
From the text: (§1) The abbreviations A to P will be used in the following Tables 2 to 8.
(§2) Test results are shown in terms of the minimum inhibition concentration (µg/mℓ.) in the following Tables 2 to 8.

Proteus vulgaris OX-19 = settings: Proteus vulgaris
From the text: as §1, §2

[1] = tested on: Bacillus subtilis ATCC 6633; settings: for MIC: Bacillus subtilis
Method: (§3) Antibacterial activities of the compounds according to this invention, which had been prepared in the preceding Examples, were measured according to the method prescribed by The Committee of Amendment of "The method for measurement of the minimum inhibition concentration", The Chemotherapy Association, Japan (See Chemotherapy, Vol. 22, No. 6, pp. 1126 - 1128 (1974) and Vol. 29, No. 1, pp. 76 - 79 (1981)).
as §1, §2

[2] = tested on: Citrobactor freundii NIH-10018 -68; settings: read-out: minimum inhibition concentration
Method: as §3, §1, §2

[3] = tested on: Enterobactor cloacae NCTC-9394; settings: for MIC: read-out: minimum inhibition concentration
Method: as §3, §1, §2

Escherichia coli NIHJC-2 = settings: for MIC: Escherichia coli
Method: as §3, §1, §2

Escherichia coli NIHJ = settings: for MIC: Escherichia coli, read-out: minimum inhibition concentration
Method: as §3, §1, §2

Klebsiella pneumoniae = settings: for MIC: Klebsiella pneumoniae
Method: as §3, §1, §2

[4] = tested on: Proteus mirabillis B-30-2 IFO-3849
Method: as §3, §1, §2

Proteus morgani Kono = settings: for MIC: read-out: minimum inhibition concentration
Method: as §3, §1, §2

[5] = tested on: Pseudomonas aeruginosa NCTC-10490; settings: for MIC: Pseudomonas aeruginosa; for minimum inhibition concentration: strain M: Pseudomonas aeruginosa NCTC-10490
Method: as §3, §1, §2

[6] = tested on: Salmonella typhimurium 3173; settings: Salmonella enterica, TYPHIMURIUM
Method: as §3, §1, §2

Serratia marcescens 1023 = tested on: Serratia marcescens 1023
Method: as §3, §1, §2

[7] = tested on: Serratia marcescens IFO-3736; settings: for MIC: Serratia marcescens; for minimum inhibition concentration: strain F: Serratia marcescens IFO-3736
Method: as §3, §1, §2

[8] = tested on: Staphylococcus aureus 6538-P
Method: as §3, §1, §2

[9] = OX19, strain H: Proteus vulgaris OX-19, read-out: minimum inhibition concentration
[10] = strain O: Citrobactor freundii NIH-10018 -68
[11] = strain N: Enterobactor cloacae NCTC-9394
[12] = NIHJC2, strain L: Escherichia coli NIHJC-2, read-out: minimum inhibition concentration
[13] = strain K: Escherichia coli NIHJ
[14] = strain C: Klebsiella pneumoniae, read-out: minimum inhibition concentration
[15] = NCTC10490, strain M: Pseudomonas aeruginosa NCTC-10490, read-out: minimum inhibition concentration
[16] = strain D: Salmonella typhimurium 3173, read-out: minimum inhibition concentration
[17] = Serratia marcescens, 1023, strain E: Serratia marcescens 1023, read-out: minimum inhibition concentration
[18] = IFO3736, strain F: Serratia marcescens IFO-3736, read-out: minimum inhibition concentration
[19] = strain A: Staphylococcus aureus 6538-P, read-out: minimum inhibition concentration
[20] = NIH96, strain I: Proteus rettgeri NIH-96, read-out: minimum inhibition concentration
[21] = ATCC6633, strain B: Bacillus subtilis ATCC 6633, read-out: minimum inhibition concentration
[22] = strain G: Proteus mirabillis B-30-2 IFO-3849, read-out: minimum inhibition concentration

Compound	MIC (Proteus vulgaris OX-19; [9]) [µg/mL]	MIC [2, 10] [µg/mL]	MIC [3, 11] [µg/mL]	MIC (Escherichia coli NIHJC-2; [12]) [µg/mL]	MIC (Klebsiella pneumoniae; [14]) [µg/mL]	MIC [5, 15] [µg/mL]	MIC [6, 16] [µg/mL]	MIC (Serratia marcescens 1023; [17]) [µg/mL]	MIC [7, 18] [µg/mL]	MIC [8, 19] [µg/mL]	MIC (Proteus rettgeri NIH-96; [20]) [µg/mL]	MIC [1, 21] [µg/mL]	MIC (Escherichia coli NIHJ; [13]) [µg/mL]	MIC [4, 22] [µg/mL]	MIC (Proteus morgani Kono; strain J: Proteus morgani Kono) [µg/mL]	further results
CO/N=C(\C(=O)N[C@@H]1C(=O)N2C(C(=O)O)=C(COC(C)=O)CS[C@H]12)c1csc(N)n1 [Cefotaxime, reference compound]	< 0.025	0.2 (≈ 0.439 µM)	0.39 (≈ 0.856 µM)	0.2 (≈ 0.439 µM)	0.1 (≈ 0.22 µM)	0.78 (≈ 1.71 µM)	0.1 (≈ 0.22 µM)	50 (≈ 110 µM)	0.2 (≈ 0.439 µM)	0.39 (≈ 0.856 µM)						minimum inhibition concentration (Proteus rettgeri NIH-96): <0.00625 µg/mL; minimum inhibition concentration (Proteus rettgeri NIH-96; listed as Cefota-xime): <0.025 µg/mL; minimum inhibition concentration ([1]; strain B: Bacillus subtilis ATCC 6633): 6.25 µg/mL (≈ 13.7 µM); minimum inhibition concentration [3, 11]: 0.2 µg/mL (≈ 0.439 µM); minimum inhibition concentration ([3]; strain N: Enterobactor cloacae NCTC-9394, listed as Cefota-xime): 0.2 µg/mL (≈ 0.439 µM); minimum inhibition concentration (Escherichia coli NIHJC-2; strain L: Escherichia coli NIHJC-2): 0.1 µg/mL (≈ 0.22 µM); minimum inhibition concentration (Escherichia coli NIHJ; [13]): <0.00625 µg/mL; minimum inhibition concentration (Escherichia coli NIHJ; strain K: Escherichia coli NIHJ, listed as Cefota-xime): <0.025 µg/mL; minimum inhibition concentration (Klebsiella pneumoniae; strain C: Klebsiella pneumoniae): 0.05 µg/mL (≈ 0.11 µM); minimum inhibition concentration ([4]; strain G: Proteus mirabillis B-30-2 IFO-3849): 0.025 µg/mL (≈ 0.0549 µM); minimum inhibition concentration ([4]; strain G: Proteus mirabillis B-30-2 IFO-3849, listed as Cefota-xime): 0.1 µg/mL (≈ 0.22 µM); minimum inhibition concentration (Proteus morgani Kono; strain J: Proteus morgani Kono): 0.39 µg/mL (≈ 0.856 µM); minimum inhibition concentration (Proteus morgani Kono; strain J: Proteus morgani Kono, listed as Cefota-xime): 1.56 µg/mL and 0.78 µg/mL; minimum inhibition concentration [5]: 0.39 µg/mL (≈ 0.856 µM); minimum inhibition concentration ([5]; listed as Cefota-xime): 0.39 µg/mL (≈ 0.856 µM); minimum inhibition concentration (Serratia marcescens 1023; strain E: Serratia marcescens 1023): 100 µg/mL (≈ 220 µM); minimum inhibition concentration [7]: 0.2 µg/mL (≈ 0.439 µM); minimum inhibition concentration ([7]; listed as Cefota-xime): 0.39 µg/mL (≈ 0.856 µM)
CC(=O)OCC1=C(C(=O)O)N2C(=O)C(NC(=O)C(=C(Cl)Cl)c3ccc(Br)s3)[C@H]2SC1 (stereo partly shown) [Compound 32, 7-[2-dichloromethylene-2-(5-bromo-2-thienyl)acetamido]-3-acetoxymethyl-3-cephem-4-carboxylic acid]	100 (≈ 180 µM)	> 100	> 100	> 100	> 100	50 (≈ 89.9 µM)	> 100	12.5 (≈ 22.5 µM)	> 100	0.1 (≈ 0.18 µM)	0.78 (≈ 1.4 µM)	6.25 (≈ 11.2 µM)	25 (≈ 44.9 µM)	> 100	> 100	
CC1(C)S[C@@H]2C(NC(=O)C(=C(Cl)Cl)c3cccs3)C(=O)N2[C@H]1C(=O)O (stereo partly shown) [Compound 37, 6-[2-dichloromethylene-2-(2-thienyl)acetamido]-penicillanic acid]	50 (≈ 119 µM)	> 100	100 (≈ 237 µM)	> 100	> 100	6.25 (≈ 14.8 µM)	> 100	0.05 (≈ 0.119 µM)	> 100	0.1 (≈ 0.237 µM)	0.25 (≈ 0.593 µM)	1.56 (≈ 3.7 µM)	0.78 (≈ 1.85 µM)	> 100	> 100	
CC1=C(C(=O)O)N2C(=O)C(NC(=O)C(=CCl)c3csc(N)n3)C2SC1 (single isomer, unassigned) [Compound 23, 7-[2-chlromethylene-2-(2-aminothiazol-4-yl)acetamido]-desacetoxycephelosporanic acid sodium salt]	12.5	100	12.5	100	50	> 100	50	100	> 100	3.12	0.39	50	6.25	25	> 100	
CC(=O)OCC1=C(C(=O)O)N2C(=O)C(NC(=O)C(=C(Cl)Cl)c3ccc(O)cc3)[C@H]2SC1 (stereo partly shown) [Compound 2, 7-[2-dichloromethylene-2-(4-hydroxyphenyl)acetamido]-3-acetoxymethyl-3-cephem-4-carboxylic acid]	6.25 (≈ 12.8 µM)	> 100	> 100	> 100	> 100	6.25 (≈ 12.8 µM)	100 (≈ 205 µM)	6.25 (≈ 12.8 µM)	> 100	0.39 (≈ 0.8 µM)	0.2 (≈ 0.41 µM)	3.12 (≈ 6.41 µM)	0.39 (≈ 0.8 µM)	> 100	> 100	
CC(=O)OCC1=C(C(=O)O)N2C(=O)C(NC(=O)C(=C(Cl)Cl)c3ccc(N)cc3)[C@H]2SC1 (stereo partly shown) [4-(2), 7-[2-dichloromethylene-2-(4-aminophenyl)acetamido]-3-acetoxymethyl-3-cephem-4-carboxylic acid]	6.25 (≈ 12.9 µM)	> 100	> 100	> 100	> 100	12.5 (≈ 25.7 µM)	100 (≈ 206 µM)	3.12 (≈ 6.43 µM)	> 100	0.39 (≈ 0.802 µM)	0.2 (≈ 0.411 µM)	1.56 (≈ 3.21 µM)	0.39 (≈ 0.802 µM)	> 100	> 100	
Cn1nnnc1SCC1=C(C(=O)O)N2C(=O)C(NC(=O)C(=CCl)c3csc(N)n3)C2SC1 (stereo not shown) [11-(3), 7-[2-chloromethylene-2-(2-aminothiazol-4-yl)-acetamido]-3-(1-methyl-lH-tetrazol-5-yl)thiomethyl-3-cephem-4-carboxylic acid sodium salt]	0.025	0.78	0.2	0.78	0.78	1.56	0.78	6.25	0.78	0.39	< 0.00625	3.12	< 0.00625	0.39	0.2	
CC(=O)OCC1=C(C(=O)O)N2C(=O)C(NC(=O)C(=C(Cl)Cl)c3csc(N)n3)[C@H]2SC1 (stereo partly shown) [5-(2), 7-[2-dichloromethylene-2-(2-aminothiazol-4-yl)acetamido]-3-acetoxymethyl-3-cephem-4-carboxylic acid]	0.2 (≈ 0.405 µM)	6.25 (≈ 12.7 µM)	1.56 (≈ 3.16 µM)	12.5 (≈ 25.3 µM)	6.25 (≈ 12.7 µM)	6.25 (≈ 12.7 µM)	6.25 (≈ 12.7 µM)	12.5 (≈ 25.3 µM)	50 (≈ 101 µM)	1.56 (≈ 3.16 µM)	< 0.025	12.5 (≈ 25.3 µM)	0.1 (≈ 0.203 µM)	12.5 (≈ 25.3 µM)	25 (≈ 50.7 µM)	
CSc1nnc(SCC2=C(C(=O)[O-])N3C(=O)C(NC(=O)C(=CCl)c4csc(N)n4)[C@H]3SC2)s1.[Na+] (stereo partly shown) [Compound 21, 7-[2-chloromethylene-2-(2-aminothiazol-4-yl)acetamido]-3-(2-methylthio-1,3,4-thiadiazol-5-yl)thiomethyl-3-cephem-4-carboxylic acid sodium salt]																MIC (Proteus rettgeri NIH-96; NIH96, read-out: minimum inhibition concentration, strain I: Proteus rettgeri NIH-96): < 0.00625 µg/mL; MIC (Proteus vulgaris OX-19; OX19, read-out: minimum inhibition concentration, strain H: Proteus vulgaris OX-19): 0.025 µg/mL; MIC ([1]; ATCC6633, read-out: minimum inhibition concentration, strain B: Bacillus subtilis ATCC 6633): 3.12 µg/mL; MIC [2]: 3.12 µg/mL; MIC [3]: 0.39 µg/mL; MIC (Escherichia coli NIHJC-2; NIHJC2, read-out: minimum inhibition concentration): 1.56 µg/mL; MIC (Escherichia coli NIHJ): < 0.00625 µg/mL; MIC (Klebsiella pneumoniae; read-out: minimum inhibition concentration, strain C: Klebsiella pneumoniae): 3.12 µg/mL; MIC ([4]; read-out: minimum inhibition concentration, strain G: Proteus mirabillis B-30-2 IFO-3849): 1.56 µg/mL; MIC (Proteus morgani Kono): 0.78 µg/mL; MIC ([5]; NCTC10490, read-out: minimum inhibition concentration): 6.25 µg/mL; MIC ([6]; read-out: minimum inhibition concentration, strain D: Salmonella typhimurium 3173): 3.12 µg/mL; MIC (Serratia marcescens 1023; Serratia marcescens, 1023, read-out: minimum inhibition concentration, strain E: Serratia marcescens 1023): 3.12 µg/mL; MIC ([7]; IFO3736, read-out: minimum inhibition concentration): 3.12 µg/mL; MIC ([8]; Staphylococcus aureus, 6538P, read-out: minimum inhibition concentration, strain A: Staphylococcus aureus 6538-P): 0.2 µg/mL
